Series [1] in a line: AUC (0 to infinity) in Sprague-Dawley rat at 1 mg/kg, iv. Particulars: plasma. Also noted: time infinity, dose 1 mg/kg, route intravenous. It is filed as ADME, organism-based.
The nature of series [2]: AUC (0 to infinity) in Sprague-Dawley rat at 3 mg/kg. It is filed as ADME, organism-based. Further details: dose 3 mg/kg, time infinity. The conditions noted are these: plasma.
A short description of series [3]: Plasma clearance in Sprague-Dawley rat at 1 mg/kg, iv. Type of series: ADME, organism-based. Also noted: dose 1 mg/kg, route intravenous.
Series [4] is described as follows: Half life in Sprague-Dawley rat at 1 mg/kg, iv. Also noted: dose 1 mg/kg, route intravenous. Type of series: ADME, organism-based. The conditions noted are these: in vivo.
The nature of series [5]: Volume of distribution at steady state in Sprague-Dawley rat at 1 mg/kg, iv. Further details: dose 1 mg/kg, route intravenous. It is filed as ADME, organism-based. The conditions noted are these: in vivo, read-out: Vdss.
The nature of series [6]: Cmax in Sprague-Dawley rat at 3 mg/kg. It is filed as ADME, organism-based. Further details: dose 3 mg/kg. The conditions noted are these: in vivo.
Series [7] can be described thus: Tmax in Sprague-Dawley rat at 3 mg/kg. It is filed as ADME, organism-based. Also noted: dose 3 mg/kg. Particulars: in vivo.
Series [8] is described as follows: Oral bioavailability in Sprague-Dawley rat at 3 mg/kg. Type of series: ADME, organism-based. The conditions noted are these: in vivo.
Series [9] is described as follows: physchem. The conditions noted are these: buffer, pH 7.4.

The record followed here is ChEMBL document CHEMBL1155212, “Discovery and structure-activity relationships of a novel class of quinazoline glucokinase activators” (Bioorg Med Chem Lett, 2009).

Molecules are shown by their SMILES.

For orientation: AUC(0-inf) means total exposure, with the tail of the curve extrapolated. Lower therefore signals less exposure. Broadly, the clearance is the rate of elimination divided by the concentration. A higher clearance goes with a high capacity for elimination. Broadly, the half-life is the time needed for the level to fall by half in the phase considered. Read a low half-life as rapid decline. Broadly, the Cmax is the highest concentration seen after dosing. For orientation: Tmax means the time at which the peak concentration occurs. For orientation: bioavailability means the share of a dose that reaches the circulation, judged against a reference dose that is usually intravenous. For orientation: logD means lipophilicity at a set pH, counting ionised and neutral species. Low readings indicate lower lipophilicity, high ones higher lipophilicity. On to `Cn1ccc(Nc2ncnc3ccc(Oc4c(F)cccc4S(C)(=O)=O)cc23)n1`, for which the results for the AUC(0-inf) in series [1] and in series [2] were 6.3 µM·h and 13.3 µM·h, respectively. The molecule also came in with a clearance in series [3] of 6.8 mL/min/kg. This molecule also showed a half-life in series [4] of 1.3 h. The Vd in series [5] came to 0.5 L/kg. Besides, the Cmax in series [6] came out at 5.8 µM. The Tmax in [7] was 0.9 h. Also, in [8], the bioavailability was determined as 71%. The molecule also gave a log distribution coefficient (logD) in series [9] of 1.9.
As to `CCn1ccc(Nc2ncnc3ccc(Oc4c(F)cccc4S(C)(=O)=O)cc23)n1`, the logD in series [9] amounted to 2.4.
The same measure, in the same setting: the value for `Cn1ccc(Nc2ncnc3ccc(Oc4ccccc4S(C)(=O)=O)cc23)n1` was 1.9; that for `Cn1ccc(Nc2ncnc3ccc(Oc4c(Cl)cccc4S(C)(=O)=O)cc23)n1` was 2.3.
As for `Cn1ccc(Nc2ncnc3ccc(Oc4ncccc4Cl)cc23)n1`, in series [9], the logD was 2.9.
On the same count and under the same terms, the result for `Cc1csc(Nc2ncnc3ccc(Oc4ccccc4F)cc23)n1` reads 5.8.
Same read-out and setting: the result for `Cc1csc(Nc2ncnc3ccc(Oc4ccc(F)cc4)cc23)n1` reads 5.8; that for `CS(=O)(=O)c1cccc(F)c1Oc1ccc2ncnc(Nc3ccccn3)c2c1`, 3.6; that for `CN(C)C(=O)c1cccnc1Oc1ccc2ncnc(Nc3ccn(C)n3)c2c1`, 1.4.
On the same count and under the same terms, the value for `Cn1ccc(Nc2ncnc3ccc(Oc4ccc(F)cc4F)cc23)n1` was 3.6; that for `Cc1cnc(Nc2ncnc3ccc(Oc4c(F)cccc4S(C)(=O)=O)cc23)cn1` was 2.5.
In the case of `CS(=O)(=O)c1cccc(F)c1Oc1ccc2ncnc(Nc3cccnn3)c2c1`, in series [9], the logD was 2.
Still for that read-out and setting: the result for `Cc1nsc(Nc2ncnc3ccc(Oc4c(F)cccc4S(C)(=O)=O)cc23)n1` reads 3.1.
On the same count and under the same terms, the value for `Cn1ccc(Nc2ncnc3ccc(Oc4ncccc4Br)cc23)n1` was 3.4; that for `Cc1cccc(S(C)(=O)=O)c1Oc1ccc2ncnc(Nc3ccn(C)n3)c2c1` was 2.1; that for `Cc1cccc(C#N)c1Oc1ccc2ncnc(Nc3ccn(C)n3)c2c1` was 3.4.
As for `Cn1ccc(Nc2ncnc3ccc(Oc4c(F)cccc4F)cc23)n1`, the logD in series [9] turned out to be 3.7.
As to `Cn1ccc(Nc2ncnc3ccc(Oc4ncccc4CO)cc23)n1`, the logD in [9] turned out to be 1.7.
On the same count and under the same terms, the result for `Cn1ccc(Nc2ncnc3ccc(Oc4ccncn4)cc23)n1` reads 1.7; that for `Cn1ccc(Nc2ncnc3ccc(Oc4ccccn4)cc23)n1`, 2.1.
The same measure, in the same setting: the value for `CS(=O)(=O)c1cccc(F)c1Oc1ccc2ncnc(Nc3cnccn3)c2c1` was 2.2; that for `CS(=O)(=O)c1cccc(F)c1Oc1ccc2ncnc(Nc3cc[nH]n3)c2c1` was 1.8.
`Cn1ccc(Nc2ncnc3ccc(Oc4ncccc4F)cc23)n1` yielded a logD in series [9] of 2.4.
`Cc1csc(Nc2ncnc3ccc(Oc4ccccc4S(C)(=O)=O)cc23)n1` registered a logD in series [9] of 4.3.
